# In patent publication US12480950B2, “AKT-specific capture agents, compositions, and methods of using and making” (California Institute of Technology, priority 2011, dated 2025):
# Where two headings read alike, the source gives them in different places. Bridge positions count the residues as written; N and C are the ends. Square brackets hold non-standard residues; d marks the D form. Ends that are not written are not given here. I, II: the chains in the order shown. dPra = C#CC[C@@H](N)C(=O)O; C8N3 = not defined here
# Experiments:
# [1] = molecular target: T1, Akt (Homo sapiens, UniProt P31751); assay: Detection of Akt from OVCAR3 cell lysate by anti-Ser474 Akt2 capture agents; assay type: binding
# T1 construct: endogenous in cells; host or cells: OVCAR3
# Description: The characteristics of this best ligand were improved through use of sequential in situ click chemistry, as described in Capture Agents and Related Compositions, Methods, and Systems CIT 5164-P; and Akt-Specific Capture Agents, Compositions, and Methods of Using and Making. CIT 5917-P, Agnew, et al., Angew. Chem. 121, p 5044-5048 (2009), and Millward, et al., J. Am. Chem. Soc. 133, 1820 (2011), incorporated herein by reference in their entireties. For these steps, the capture agent that was identified in Steps (1)-(4) was improved into a biligand (FIG. 36b), and then a triligand (FIG. 36c).
# [2] = molecular target: Akt1-S473E-T308P
# Description: FIG. 22A: Velocity vs. [Peptide substrate] with varying concentration of inhibitory triligand. FIG. 22B: Velocity vs. [ATP] with varying concentration of inhibitory triligand.
# FIGS. 23A-23D show determination of Ki′ and inhibition mode for triligand with respect to peptide substrate. FIG. 23A: Plot of 1/KM(app) vs. [Triligand]. KM(app) were obtained from nonlinear regression analysis of velocity vs. [Peptide] curves obtained with varied concentrations of triligand (Graphpad). The error bars represent the standard error of KM(app) by nonlinear regression. 95% confidence intervals are shown as dotted lines. […] FIG. 23B: Plot of 1/Vmax(app) vs. [Triligand]. Values for Vmax(app) and standard error were obtained by nonlinear regression as described above. […] FIG. 23C: Dixon plot of 1/v vs. [Triligand] at various [Peptide]. Data from low peptide concentrations were removed to account for possible substrate depletion. […] FIG. 23D: Cornish-Bowden plot of [Peptide]/v vs. [Triligand] at various [Peptide]. The intersection of the lines gives the −Ki′.
# FIG. 24A: Plot of 1/KM(app) vs. [Triligand]. KM(app) were obtained from nonlinear regression analysis of velocity vs. [ATP] curves obtained with varied concentrations of triligand (Graphpad). The error bars represent the standard error of KM(app) by nonlinear regression. […] FIG. 24B: Plot of 1/Vmax(app) vs. [Triligand]. […] FIG. 24C: Dixon plot of 1/v vs. [Triligand] at various [ATP]. Data from low ATP concentrations were removed due high counting error resulting from low counts per minute (cpm).
# Two standard enzyme kinetic assays were carried out to determine the mode of Akt1 inhibition by the triligand (Segel 1975). For these assays, the kinase activity is measured under varying substrate and triligand concentrations. The resulting data can be interpreted so that the nature of the competition between the triligand and the substrate for the relevant kinase binding site is determined. For example, if the triligand and ATP competed for the same binding pocket, the maximum velocity (Vmax) of the kinase would be unchanged while the Michaelis constant (KM) would increase. The plots can also be used as a means of determining the inhibition constant (Ki) of the triligand.
# Akt-S473E-T308P was prepared by incubating 75 μg Akt-S473E with 1 μg PDK1 (Sigma) in the presence of 500 μM ATP in 1× reaction buffer (25 mM Tris-Cl (pH=7.5), 10 mM MgCl2, 2 mM DTT, 1× protease inhibitors (Roche), 1× phosphatase inhibitors (Roche)). The phosphorylation reaction proceeded for 40 minutes at room temperature followed by addition of 25 mM EDTA. The quenched reaction was added to 40 μL Anti-FLAG M2 agarose (Sigma) and allowed to bind for 2 hr at 4° C. The resin was washed in FLAG Wash Buffer (20 mM HEPES (pH=7.4), 150 mM NaCl, 1× protease inhibitors (Roche), 1× phosphatase inhibitors (Roche)) and the Akt1-S473E-T308P eluted with FLAG Elution Buffer (FLAG wash buffer+0.15 mg/mL 3×FLAG peptide) for 30 minutes at room temperature. The concentration of protein was determined by Bradford assay.
# [3] = molecular target: T2, GSK3β (Homo sapiens, UniProt P49841); assay: Specificity ELISA, immobilized ligand probed with His-tagged kinases; details: A450 normalized to Akt1-S473E binding
# T2 construct: a set of His-tagged active protein kinase domains from the AGC family; purchased Invitrogen
# Description: (§1) Biotinylated ligand was immobilized on Streptavidin plates and probed with 25 nM His-tagged kinase followed by anti-Histag antibody-HRP conjugate. Values represent the mean A450 obtained from three experiments after normalization to Akt1-S473E binding. The error bars show the standard error.
# (§2) The specificity of the anchor ligand, biligand, and triligand developed in Example 1 was analyzed using a battery of protein kinases. […] Akt1-S473E was expressed and purified as described above.
# (§3) The relative affinity of each kinase was determined by probing with an anti-His6 antibody and normalizing the response to Akt1-S473E. All proteins were diluted in Akt blocking buffer to a final concentration of 24 nM prior to use. Ligands were diluted in Akt blocking buffer to a final concentration of 2.5 μM prior to use. 100 μL of each ligand (250 pmol) was added to each well of a HBC streptavidin-coated 96-well plate. The ligands were bound at 4° C. for 1 hour followed by addition of D-biotin to a final concentration of 500 μM. After 10 minutes at 4° C., the wells were washed three times with Akt blocking buffer and blocked overnight in 5% non-fat milk.
# (§4) The wells were washed three times in Akt blocking buffer and 50 μL of active protein was applied to each well. After binding for 120 minutes at 4° C., the wells were washed three times in Akt blocking buffer to remove unbound protein. 50 μL of horseradish peroxidase-conjugated Anti-His6 antibody was added at a dilution of 1:100 (His Probe (H-3) HRP conjugate, Santa Cruz Biotechnology). The antibody-HRP conjugate was incubated for 60 minutes and the wells were washed 3 times in TBST and once in TBS. 50 μL of peroxidase substrate (KPL) was added and the resulting color change was quenched with 50 μL 1 M H2SO4. The A450 measured on a 96-well plate reader. […] The mean value for the triplicates was calculated and plotted and the error bars were generated from the standard error of the mean (GraphPad Prism).
# [4] = tested on: Akt1; assay: as above; set-up: species or system H. sapiens; details: A450 normalized to Akt1-S473E binding; kinase panel
# Description: as §1, §2, §3, §4
# [5] = tested on: Akt; assay: Immunoprecipitation of Akt from OVCAR3 cell lysates with immobilized ligands; assay type: binding; details: EGF and insulin induced or control, Western blot with pan-Akt antibody
# Description: A representative 12% gel stained with Coomassie and imaged. Lane 1: Lysate, Lane 2: Anchor resin, Lane 3: Biligand resin, Lane 4: Triligand resin, Lane 5: 5G3 mAb resin.
# After 18 hours at 4° C., resins were washed exhaustively, eluted with SDS-PAGE sample buffer, and analyzed by Western blotting. 1. Blank resin, 2. Anchor, 3. Biligand, 4. Triligand, 5. [5G3] mAb, L. lysate.
# For the IP experiments, the anchor, biligand, and triligands were immobilized on streptavidin-agarose, and each resin was panned with OVCAR3 cell lysates obtained from untreated cells or cells stimulated with a combination of epidermal growth factor (EGF) and insulin.
# OVCAR3 cells were grown in RPMI-1640 media containing 10% fetal bovine serum, penicillin, and streptomycin. Passage 4 cells were grown to ˜60% confluence and treated with insulin and EGF at final concentration of 10 μg/mL and 20 ng/mL respectively (induced) or mock treated (control). Cells were grown for an additional 24 hours and then lysed with lysis buffer (10 mM Tris-Cl (pH=7.5), 100 mM NaCl, 1% (v/v) Triton X-100, 0.1% SDS (w/v), 0.5% deoxycholate, 1 mM DTT, 1 mM EDTA, 1× PhosStop phosphatase inhibitors (Roche), 1× Complete protease inhibitors (Roche). Cell lysate protein concentrations were determined by Bradford assays. […]
# [6] = molecular target: MEK1 (Homo sapiens, UniProt Q02750); details: A450 normalized to Akt1-S473E binding
# Description: as §1, §2
# as §3, with “After 10 minutes at 4° C., the wells were washed three times with Akt blocking buffer and blocked overnight in 5% non-fat milk.” left out
# The wells were washed three times in Akt blocking buffer and 50 μL of active protein was applied to each well. […] The A450 measured on a 96-well plate reader. […] The mean value for the triplicates was calculated and plotted and the error bars were generated from the standard error of the mean (GraphPad Prism).
# [7] = tested on: Akt-S473E; assay: ELISA with immobilized Akt-S473E, relative affinity of biotinylated ligands; assay type: binding, H. sapiens; details: triligand versus biligand
# Description: Akt-S473E was immobilized on Ni-NTA plates and incubated with varying concentrations of biotinylated peptide. All values were normalized to the binding observed at saturation.
# The affinity of the anchor ligand, biligand, and triligand developed in Example 1 was determined by ELISA with immobilized Akt-S473E.
# 3 μg of Akt-S473E was added to each well in a HisSorb Ni-NTA plate (Qiagen) in 50 μL of ELISA blocking buffer (25 mM Tris-Cl (pH=7.5), 150 mM NaCl, 10 mM MgCl2, 0.1% (v/v) Tween-20, and 4 mg/mL BSA). 50 μL of imidazole blocking buffer (25 mM Tris-Cl (pH=7.5), 150 mM NaCl, 10 mM MgCl2, 0.1% (v/v) Tween-20, 100 mM imidazole, and 4 mg/mL BSA) was added to the control wells. After 18 hours at 4° C., the wells were washed with ELISA blocking buffer and 50 μL of each ligand dilution was added in ELISA blocking buffer. The ligands were bound at 4° C. for 120 minutes followed by three washed in ELISA blocking buffer. 50 μL of horseradish peroxidase-conjugated streptavidin (SA-HRP, Thermo) was added (1:5000 dilution in ELISA blocking buffer) and incubated for 70 minutes at 4° C. […] 50 μL of peroxidase substrate (KPL) was added to generate the final signal which was quenched in 1 M H2SO4 and quantitated on a 96-well plate reader at X=450 nm. The Net A450 was calculated by subtracting the A450 of each blank well (No Akt-S473E) from the experimental well. […]
# [8] = tested on: Akt-S473E; details: [2H10] antibody directed toward the C-terminus
# Description: Immobilized anchor, biligand, and triligand were probed with varying concentrations of […]. Binding was detected by an anti-Akt1 monoclonal antibody ([2H10]) followed by an anti-mouse secondary antibody-HRP conjugate. The fraction bound was normalized and plotted against the concentration of Akt-S473E on a log scale.
# The C-terminus is effectively on the “backside” of the kinase domain, opposite the active site.
# [9] = molecular target: Akt1-S473E; details: SPR, from kinetic parameters, 10° C., Akt1-S473E 9000 nM to 1 nM
# Description: For this experiment, the biotinylated triligand was immobilized on a streptavidin-derivatized biacore chip and probed with Akt-S473E at concentrations ranging from 9 μM to 1 nM.
# Triligand binding affinity was further analyzed by SPR using a Biacore T100. A Streptavidin Chip (Series S, G.E. Healthcare) was conditioned as recommended by the manufacturer. Biotinylated ligand was diluted into HBSP+ Buffer (G.E. Healthcare) to a final concentration of 100 nM and 137 RU was immobilized on the chip. Akt1-S473E was prepared as described previously and subjected to buffer exchange into HBSP+ using Zeba Desalting Columns (Pierce). Serial dilutions of the enzyme were made in HBSP+ buffer (9000 nM to 1 nM) and flowed over the chip at 50 μL/minute. Binding and dissociation were carried out at 10° C. with a contact time of 360 seconds, a dissociation time of 400 seconds, and a stabilization time of 200 seconds. The response was corrected using an unmodified reference flow cell. Kinetic constants were obtained from the sensograms and used to calculate the dissociation constant.
# [10] = molecular target: T3, Akt2 (Homo sapiens, UniProt P31751); assay: Akt2 kinase activity assay, p-GSK-3a/b Western blot; assay type: biochemical; details: p-GSK-3a/b abundance, active Akt2
# T3 construct: purchased Abcam
# Description: PCC compositions, developed using the epitope targeting strategy, make non-traditional enzyme inhibitors. If Akt2 is activated by phosphorylation of Ser474 then, in that state, it phosphorylates GSK-3a/b. If it is further activated via a steric effect, then it will produce more p-GSK-3a/b. If that same Akt2 is inhibited, then it will produce less p-GSK-3a/b. Thus, the signature of Akt inhibition (or activation) is read out as p-GSK-3a/b abundance, relative to the DMSO control. Assays are shown at right in the form of Western Blots. The DMSO column gives the baseline level. The n-terminal triligand the biligand, the dimer of the n-terminal triligand, and the commercial monoclonal antibody all activate Akt relative to DMSO. The c-terminal triligand inhibits Akt. The ‘hi’ and ‘low’ blots correspond to long and short development times, respectively. The Akt2 protein used for the inhibition assay is active Akt2 that is phosphorylated at Thr308, and is at least partially phosphorylated at Ser474, since the antibody for pSer474 detects the pSer474.
# [11] = tested on: Akt; assay: Immunofluorescent imaging of Akt in fixed OVCAR3 cells; assay type: cell-based; details: unstimulated or EGF-treated
# Description: OVCAR3 cells were grown on polylysine coated coverslips and treated with either 500 ng/mL EGF (Sigma) or vehicle control for 10 minutes. Cells were then fixed with 10% formaldehyde for 15 min at 37° C., washed with PBS, permeablized by incubating with 0.1% Triton X-100 for 10 min at room temperature, and blocked with 5% goat serum. Permeabilized cells were stained with either a fluorescein-conjugated Pan Akt antibody (R&D Systems IC2055F, 10 μg/mL) overnight or 1 μM fluorescein conjugated biligand for 1 hour. Images were acquired using a Zeiss Pascal 5 Laser Scanning Microscope (Caltech Biological Imaging Center) and surface plots were generated with ImageJ software (NIH). For this assay, Akt was expected to locate to the cell membrane following stimulation of a receptor tyrosine kinase such as epidermal growth factor receptor (EGFR) by its ligand (EGF). Images of unstimulated and stimulated cells clearly reveal that this was the case (FIG. 18).
# T1 sequence (P31751 whole entry): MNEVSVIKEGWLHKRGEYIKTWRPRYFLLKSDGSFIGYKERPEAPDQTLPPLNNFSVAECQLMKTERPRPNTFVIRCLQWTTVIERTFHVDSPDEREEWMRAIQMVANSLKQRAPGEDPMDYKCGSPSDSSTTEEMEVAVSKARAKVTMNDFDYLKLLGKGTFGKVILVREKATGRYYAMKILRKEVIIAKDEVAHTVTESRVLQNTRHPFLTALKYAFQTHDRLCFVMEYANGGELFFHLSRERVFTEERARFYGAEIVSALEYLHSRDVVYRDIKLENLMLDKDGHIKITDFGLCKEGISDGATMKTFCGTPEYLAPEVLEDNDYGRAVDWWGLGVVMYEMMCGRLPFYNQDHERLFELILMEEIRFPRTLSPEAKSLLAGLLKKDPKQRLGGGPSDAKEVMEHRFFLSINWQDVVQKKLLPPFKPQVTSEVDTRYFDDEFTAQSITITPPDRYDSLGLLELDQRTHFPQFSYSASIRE
# T3 sequence (P31751 whole entry, species assumed): as the sequence (P31751 whole entry) above
# T2 sequence (P49841 56-340 limits assumed, species assumed): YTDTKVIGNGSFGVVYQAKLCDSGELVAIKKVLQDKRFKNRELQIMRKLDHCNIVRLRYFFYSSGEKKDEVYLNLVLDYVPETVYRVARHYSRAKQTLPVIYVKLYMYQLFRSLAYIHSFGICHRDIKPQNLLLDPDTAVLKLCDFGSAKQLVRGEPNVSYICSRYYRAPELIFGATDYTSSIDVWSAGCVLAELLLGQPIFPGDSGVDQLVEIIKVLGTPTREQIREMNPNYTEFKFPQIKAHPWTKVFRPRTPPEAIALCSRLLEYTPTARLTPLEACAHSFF
# Chain of MEK1 (Q02750 68-361 limits assumed, species assumed): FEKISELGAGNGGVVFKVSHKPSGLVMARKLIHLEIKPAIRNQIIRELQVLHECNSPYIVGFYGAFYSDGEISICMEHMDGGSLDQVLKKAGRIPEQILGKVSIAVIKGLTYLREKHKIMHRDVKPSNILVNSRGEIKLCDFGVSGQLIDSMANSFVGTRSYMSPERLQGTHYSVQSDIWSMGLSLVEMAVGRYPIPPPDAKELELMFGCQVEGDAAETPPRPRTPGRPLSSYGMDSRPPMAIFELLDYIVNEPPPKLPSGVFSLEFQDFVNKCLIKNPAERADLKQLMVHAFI
compound,measurement,setting,value
monoligand: peptide wkvkl (SEQ ID NO:4) coupled to Ac2-Tz4-PEG2-Biotin; targeted against Ser474 of Akt2 ([dW][dK][dV][dK][dL]-NH2; not fully specified (N-terminus); printed as wkvkl; also: coupled to Ac2-Tz4-PEG2-Biotin),detection of Akt from cell lysate,[1],able to detect Akt from cell lysate
CCC(C)[C@H](NC(=O)[C@H](CCCNC(=N)N)NC(=O)[C@H](CCC(=O)O)NC(=O)[C@H](Cc1cnc[nH]1)NC(=O)[C@H](CCCNC(=N)N)NC(=O)C(CCCCCCCCn1cc(CCCC(=O)NC(CCCCCCCCn2cc(C[C@H](NC(C)=O)C(=O)N[C@@H](Cc3ccccc3)C(=O)N[C@@H](Cc3c[nH]c4ccccc34)C(=O)N[C@@H](Cc3ccccc3)C(=O)N[C@@H](CC(C)C)C(=O)NC(CCCNC(=N)N)C(=O)NCC(N)=O)nn2)C(=O)N[C@H](C(=O)N[C@@H](Cc2ccccc2)C(=O)N[C@@H](Cc2ccc(O)cc2)C(=O)N[C@@H](CCCNC(=N)N)C(=O)N[C@@H](CC(C)C)C(=O)NCC(=O)N[C@@H](Cc2ccc(O)cc2)C(=O)NCCNC(=O)CCCCC2SCC3NC(=O)NC32)C(C)C)nn1)NC(C)=O)C(N)=O (some centres unmarked) [triligand],Ki,"[2]; V vs. [ATP], variable [Triligand], Dixon plot, mean ± standard deviation",4 µM
same,Ki,"[2]; V vs. [Peptide], variable [Triligand], Dixon plot, mean ± standard deviation",2.6 µM
same,Ki,"[2]; read-out: X-intercept of 1/Vmax(app) vs. [Triligand], varied ATP, wide error range based on the 95% CI",5.8 µM
same,Ki,"[2]; read-out: X-intercept of 1/Vmax(app) vs. [Triligand], varied peptide substrate",1.7 µM
same,X-intercept (−Ki′) of 1/KM(app) vs. [Triligand],[2]; varied peptide substrate,3.6 µM
same,Inhibition mode,[2]; with respect to ATP,Noncompetitive
same,Inhibition mode,[2]; with respect to peptide substrate,Uncompetitive
same,binding to GSK3β,[3],significantly reduced
same,specificity / selectivity for Akt1,[4],selectivity for Akt1 is clearly enhanced
same,immunoprecipitation of Akt,[5],somewhat increased immunoprecipitation of Akt relative to the biligand in induced cell lysates but not in the non-induced control cell lysate
same,off-target binding to MEK1,[6],completely eliminated
same,affinity gain,[7],2-3 fold
same,overlap of binding site with anti-Akt1 antibody,[8],may partially overlap
same,Kd,[9],0.2 µM
"dimer of the n-terminal triligand: dimerized n-terminal triligand targeted against Ser474 of Akt2 (FIG. 36E) (peptide 1 [dPra][dW][dK][dV][dK][dL]; peptide 2 FYGNH; peptide 3 YYRFG; numbers in words are those of the source; also: dimer of triligand, chains 2 and 3 stereochemistry not given here)",effect on Akt kinase activity relative to DMSO,[10],activate Akt
"fluorescein-conjugated biligand: biligand with fluorescein derivative on the amino terminus of the secondary peptide (FIG. 17) (chain 1 C8N3-VFYRLGY-NH2; chain 2 FWFLRG-NH2; triazole I:N-II:N; not fully specified (N-terminus); reading uncertain; also: triazole linkage between chains, fluorescein on amino terminus of secondary peptide)",imaging of Akt localisation,[11],distinguishes cytoplasmic or membrane-bound AKT
